This is an account of results in PMC9682078, “Structural changes and molecular mechanism study on the inhibitory activity of epigallocatechin against α-glucosidase and α-amylase” (Frontiers in Nutrition, 2022).

Molecules are shown by their SMILES.

The assay addresses T1, α-amylase (Sus scrofa, UniProt P00690).
T1 construct: gene AMY2
T1 sequence (P00690 16-511): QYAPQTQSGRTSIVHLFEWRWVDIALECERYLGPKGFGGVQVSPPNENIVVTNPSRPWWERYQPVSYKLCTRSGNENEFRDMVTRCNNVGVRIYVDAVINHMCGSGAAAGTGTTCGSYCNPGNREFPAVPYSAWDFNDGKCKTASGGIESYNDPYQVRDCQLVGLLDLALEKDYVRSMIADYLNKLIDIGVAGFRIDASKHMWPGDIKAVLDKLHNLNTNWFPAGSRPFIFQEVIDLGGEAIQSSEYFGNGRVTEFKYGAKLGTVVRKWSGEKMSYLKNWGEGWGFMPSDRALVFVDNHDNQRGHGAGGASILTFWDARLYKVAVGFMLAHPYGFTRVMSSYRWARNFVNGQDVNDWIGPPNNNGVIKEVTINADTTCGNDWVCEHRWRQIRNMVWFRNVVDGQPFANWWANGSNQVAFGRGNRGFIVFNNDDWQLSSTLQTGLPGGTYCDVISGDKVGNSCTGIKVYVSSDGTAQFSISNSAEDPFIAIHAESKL
Put plainly: colorimetric DNS starch hydrolysis assay; Lineweaver-Burk kinetics; intrinsic fluorescence quenching. In kind it is biochemical.

Usually IC50 stands for the concentration that gives 50% inhibition. A low value points to greater potency.

Turning to `Oc1cc(O)c2c(c1)O[C@H](c1cc(O)c(O)c(O)c1)[C@H](O)C2` [EGC, epigallocatechin], the concentration for half-maximal inhibition (IC50) was 4.44 mM.
